For 3 molecules, pest or weed control, Corn plant response rating (crop injury, 0 = no effect, 100 = complete kill) and melting point results are on record in patent publication US10485235B2, “Aryloxypyrimidinyl ethers as herbicides” (FMC Corporation, priority 2015, dated 2019).

Series [1] deals with foxtail, giant (giant foxtail, Setaria faberii). The series can be described thus: Test A preemergence, giant foxtail. The format is in vivo. Particulars: Setaria faberi, pre-emergence, 240 h, Preemergence, 0 to 100 scale (0 no effect, 100 complete control), read-out: Plant response rating, Foxtail, Giant; for pest or weed control at 31 g/ha: 31 g ai/ha; for pest or weed control at 125 g/ha: 125 g ai/ha. The method in brief:
(§1)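 Scores (0 no effect to 100 complete control) come from visual comparison of treated and untreated plants kept about 10 days in a greenhouse. Growth medium was a loam/sand blend; preemergence treatment was a directed soil spray, postemergence treatment went onto plants at the 1–2 leaf stage.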

The subject of a further series is corn (Zea mays). Nature of the series: Test A postemergence, corn. Particulars: Zea mays, post-emergence, 240 h, postemergence, 0 to 100 scale, 0 is no effect, 100 is complete control, approximately 10 days; for Corn plant response rating (crop injury, 0 = no effect, 100 = complete kill) at 31 g/ha: 31 g ai/ha; for Corn plant response rating (crop injury, 0 = no effect, 100 = complete kill) at 125 g/ha: 125 g ai/ha. Format: in vivo. The method in brief: as §1

The test system of series [2] is ragweed (common ragweed, Ambrosia elatior). Nature of the series: Test A preemergence, ragweed. The format is in vivo. As to conditions: Ambrosia artemisiifolia, pre-emergence, 240 h, Preemergence, 0 to 100 scale (0 no effect, 100 complete control), read-out: Plant response rating, Ragweed; for pest or weed control at 31 g/ha: 31 g ai/ha; for pest or weed control at 125 g/ha: 125 g ai/ha. In outline: as §1

Series [3] concerns barnyardgrass (Echinochloa crus-galli). The series can be described thus: Test A postemergence, barnyardgrass. The format is in vivo. Particulars: Echinochloa crus-galli, post-emergence, 240 h, postemergence, 0 to 100 scale, 0 is no effect, 100 is complete control, approximately 10 days, read-out: Plant response rating, Barnyardgrass; for pest or weed control at 31 g/ha: 31 g ai/ha; for pest or weed control at 125 g/ha: 125 g ai/ha. In outline:
as §1

In series [4] the test system is ryegrass, Italian (Italian ryegrass, Lolium multiflorum). Nature of the series: Test A postemergence, Italian ryegrass. Format: in vivo. As to conditions: Lolium multiflorum, post-emergence, 240 h, postemergence, 0 to 100 scale, 0 is no effect, 100 is complete control, approximately 10 days, read-out: Plant response rating, Ryegrass, Italian; for pest or weed control at 31 g/ha: 31 g ai/ha; for pest or weed control at 125 g/ha: 125 g ai/ha. The method in brief: as §1

A word on the melting point: it is the temperature of the solid-liquid transition. Consider `N#Cc1cccc(Oc2ncc(Cl)cn2)c1OC/C=C/C(F)(F)F` [Compound 8, 3-[(5-chloro-2-pyrimidinyl)oxy]-2-[[(2E)-4,4,4-trifluoro-2-buten-1-yl]oxy]benzonitrile], for which the melting point fell in the range of 102 to 106 °C. For the same molecule, in series [1], the pest or weed control at 31 g/ha was determined as 100% and the pest or weed control at 125 g/ha came out at 100%. In the series with corn (Zea mays), this molecule gave a Corn plant response rating (crop injury, 0 = no effect, 100 = complete kill) at 31 g/ha of 10% and a Corn plant response rating (crop injury, 0 = no effect, 100 = complete kill) at 125 g/ha of 20%. Moreover, in series [2], the pest or weed control at 31 g/ha came to 0% and the pest or weed control at 125 g/ha turned out to be 0%. In series [3], the pest or weed control at 31 g/ha is 20% and the pest or weed control at 125 g/ha is 60%. Besides, in series [4], the pest or weed control at 31 g/ha is 10% and the pest or weed control at 125 g/ha worked out at 60%.
Molecule `N#Cc1cccc(Oc2ncc(F)cn2)c1OCC(F)(F)F` [Compound 41] yielded a melting point of 58 to 63 °C. For the same molecule, in series [1], the pest or weed control at 31 g/ha was 20% and the pest or weed control at 125 g/ha was found to be 80%. In the series with corn (Zea mays), this molecule gave a Corn plant response rating (crop injury, 0 = no effect, 100 = complete kill) at 31 g/ha of 0% and a Corn plant response rating (crop injury, 0 = no effect, 100 = complete kill) at 125 g/ha of 10%. Also, in series [2], the pest or weed control at 31 g/ha came out at 0% and the pest or weed control at 125 g/ha was 20%. Besides, in series [3], the pest or weed control at 31 g/ha amounted to 0% and the pest or weed control at 125 g/ha was determined as 0%. Besides, in series [4], the pest or weed control at 31 g/ha was 0% and the pest or weed control at 125 g/ha is 10%.
`FC(F)(F)COc1c(I)cccc1Oc1ncc(Cl)cn1` [Compound 65] came in with a melting point of 87 to 90 °C. Moreover, in series [1], the pest or weed control at 31 g/ha was determined as 30% and the pest or weed control at 125 g/ha was 100%. In the series with corn (Zea mays), this molecule returned a Corn plant response rating (crop injury, 0 = no effect, 100 = complete kill) at 31 g/ha of 10% and a Corn plant response rating (crop injury, 0 = no effect, 100 = complete kill) at 125 g/ha of 20%. Besides, in series [2], the pest or weed control at 31 g/ha worked out at 0% and the pest or weed control at 125 g/ha is 0%. Further, in series [3], the pest or weed control at 31 g/ha is 0% and the pest or weed control at 125 g/ha was determined as 60%. In series [4], the pest or weed control at 31 g/ha turned out to be 0% and the pest or weed control at 125 g/ha was 10%.
